Series [1] is described as follows: blood levels upon intramuscular administration to mice. It counts as in vivo. The note with it: mouse, im, 20 mg/kg. On the procedure:
(§1) Table 2, below, gives the Protective Dose50 (PD50) in mice for a number of the compounds of Formula I against selected microorganisms. Table 3 gives blood levels of various compounds of Formula I upon intramuscular administration of the test compounds to mice at a dosage of 20 mg/kg.

In series [2] the test system is P. aeruginosa A9843A. In words: Protective Dose50 in mice, P. aeruginosa A9843A. Format: in vivo. To be noted: Pseudomonas aeruginosa, read-out: PD50, P. aeruginosa A9843A. On the procedure:
as §1

The test system of series [3] is S. aureus Smith. As to the kind of experiment: Protective Dose50 in mice, S. aureus Smith. It counts as in vivo. To be noted: for ED50: Staphylococcus aureus, read-out: PD50, S. aureus Smith. On the procedure:
as §1

Series [4] deals with Penicillinresistant S. aureus (5 strains). As to the kind of experiment: MIC, two-fold serial agar dilution, group (G+)-Ib. It counts as cell-based. To be noted: Staphylococcus aureus, Mueller-Hinton agar; 5 strains; read-out: Geometric Mean of MIC, (G+)-Ib. On the procedure:
(§2) In the primary evaluation of the compounds of this invention, the Minimum Inhibitory Concentrations (MIC's) of the compounds were determined by the two-fold serial agar dilution method in Mueller-Hinton agar against 32 strains of test organisms in six groups.
(G+)Ib: Penicillinresistant S. aureus (5 strains)
Background: In agar dilution the substance is mixed into plates at graded concentrations.

The test system of series [5] is E. coli Juhl. As to the kind of experiment: Protective Dose50 in mice, E. coli Juhl. It counts as in vivo. The note with it: Escherichia coli, read-out: PD50, E. coli Juhl. On the procedure: as §1
Series [6] relates to M. morganii (1 strain), Ent. cloacae (2 strains) and Ser. marcescens (2 strains). As to the kind of experiment: MIC, two-fold serial agar dilution, group (G-)-II. To be noted: Mueller-Hinton agar; 5 strains; read-out: Geometric Mean of MIC, (G-)-II. Format: cell-based. On the procedure:
as §2
(G-)II: M. morganii (1 strain), Ent. cloacae (2 strains) and Ser.

The subject of series [7] is Cephalothinresistant E. coli (3 strains) and Kl. pneumoniae (2 strains). In words: MIC, two-fold serial agar dilution, group (G-)-Ib. It counts as cell-based. The note with it: Escherichia coli, read-out: Geometric Mean of MIC, (G-)-Ib, Mueller-Hinton agar; 5 strains. On the procedure: as §2
(G-)Ib: Cephalothinresistant E. coli (3 strains) and Kl. pneumoniae (2

For series [8], the system named is Cephalothinsensitive E. coli (2 strains), Kl. pneumoniae (1 strain) and Pr. mirabilis (2 strains). In words: MIC, two-fold serial agar dilution, group (G-)-Ia. Format: cell-based. The note with it: Mueller-Hinton agar; 5 strains; read-out: Geometric Mean of MIC, (G-)-Ia. On the procedure: as §2
(G+)Ia: Cephalothinsensitive E. coli (2 strains), Kl. pneumoniae (1
strain) and Pr. mirabilis (2 strains)

Series [9] has as its system Ps. aeruginosa (7 strains). As to the kind of experiment: MIC, two-fold serial agar dilution, group (G-)-III. It counts as cell-based. The note with it: Pseudomonas aeruginosa, Mueller-Hinton agar, read-out: Geometric Mean of MIC, (G-)-III. On the procedure: as §2
(G-)III: Ps. aeruginosa (7 strains)

In series [10] the test system is Penicillinsensitive S. aureus (5 strains). In words: MIC, two-fold serial agar dilution, group (G+)-Ia. Format: cell-based. The note with it: Staphylococcus aureus, read-out: Geometric Mean of MIC, (G+)-Ia. On the procedure:
as §2
(G+)Ia: Penicillinsensitive S. aureus (5 strains)

A short description of series [11]: solubility of crystalline zwitterion in saline. It counts as physicochemical. The note with it: crystalline zwitterion form.

Values after ≈ are worked out from the molar mass of the structure shown. Where two headings read alike, the source gives them in different places.

As usually defined, the AUC is the area under the concentration-time curve, a measure of exposure. As usually defined, the Cmax is the peak of the concentration-time curve. As usually defined, the half-life is the time in which the quantity being followed falls by half. A high value points to slow loss. In series [1], `CON=C(C(=O)NC1C(=O)N2C(C(=O)[O-])=C(C=CC[n+]3ccccc3)CSC12)c1nsc(N)n1` (stereo not shown) [Compound I-1B, 7-[2-(5-Amino-1,2,4-thiadiazol-3-yl)-2-methoxyiminoacetamido]-3-[3-pyridinio-1-propen-1-yl]-3-cephem-4-carboxylate] had an AUC of 11000 ng·h/mL, a Cmax of 17000 ng/mL and a half-life of 21 min. The ED50 in series [2] turned out to be 7.7 mg/kg. In [3], the “PD50, S. aureus Smith” value came out at 0.65 mg/kg and the ED50 was 0.44 mg/kg.

In general, MIC refers to the smallest concentration in the dilution series that meets the test's criterion for growth inhibition. For the compound `CON=C(C(=O)NC1C(=O)N2C(C(=O)[O-])=C(/C=C/C[n+]3cccc(C(N)=O)c3)CSC12)c1nsc(N)n1` (stereo not shown) [Compound I-1G, 7-[2-(5-Amino-1,2,4-thiadiazol-3-yl)-2-methoxyiminoacetamido]-3-[3-(3-carbamoylpyridinio)-1-propen-1-yl]-3-cephem-4-carboxylate], the MIC amounted to 0.35 µg/mL (≈ 0.643 µM) in series [4]; 0.1 µg/mL (≈ 0.184 µM) in series [6]; 0.033 µg/mL (≈ 0.0606 µM) in [7]; 0.0094 µg/mL (≈ 0.0173 µM) in series [8]; 1.4 µg/mL (≈ 2.57 µM) in series [9]; 0.2 µg/mL (≈ 0.367 µM) in series [10]. For the same compound, the ED50 in [5] is 0.021 mg/kg; in [2], 5.92 mg/kg; in series [3], 0.96 mg/kg.

What is called solubility is how much of the substance goes into solution per volume. Low readings indicate a poorly soluble substance, high ones a readily soluble substance. Regarding `CON=C(C(=O)NC1C(=O)N2C(C(=O)[O-])=C(/C=C/C[n+]3ccc(C(N)=O)cc3)CSC12)c1nsc(N)n1` (stereo not shown) [Compound I-1H, 7-[2-(5-Amino-1,2,4-thiadiazol-3-yl)-2-methoxyiminoacetamido]-3-[3-(4-carbamoylpyridinio)-1-propen-1-yl]-3-cephem-4-carboxylate], the AUC in series [1] stood at 14000 ng·h/mL. In series [1], this compound gave a Cmax of 23000 ng/mL. Besides, the half-life in [1] came out at 16 min. The MIC in series [4] amounted to 0.4 µg/mL (≈ 0.735 µM); in series [6], 0.1 µg/mL (≈ 0.184 µM); in series [7], 0.043 µg/mL (≈ 0.079 µM); in series [8], 0.013 µg/mL (≈ 0.0239 µM); in series [9], 0.97 µg/mL (≈ 1.78 µM); in [10], 0.2 µg/mL (≈ 0.367 µM). Besides, the results for the ED50 in [5], in series [2] and in series [3] were 0.015 mg/kg, 3.9 mg/kg and 0.39 mg/kg, respectively. Moreover, the “solubility in water (in words)” value in [11] is “slightly soluble in water”. Moreover, the solubility in series [11] (in saline at 23° C.) came out at 6000 µg/mL (≈ 11000 µM).

As for `CO/N=C(\C(=O)NC1C(=O)N2C(C(=O)[O-])=C(/C=C/C[n+]3cccc4c3CCC4)CSC12)c1nsc(N)n1` (stereo not shown) [Compound I-1O, 7-[2-(5-Amino-1,2,4-thiadiazol-3-yl)-2-(Z)-methoxyiminoacetamido]-3-[3-(2,3-cyclopentenopyridinio)-1-propenyl]-3-cephem-4-carboxylate], in series [1], the AUC came out at 17000 ng·h/mL. The peak level in [1] (Cmax) was 28000 ng/mL. The half-life in [1] came out at 32 min. In addition, the MIC in series [4] amounted to 0.35 µg/mL (≈ 0.646 µM); in series [6], 0.11 µg/mL (≈ 0.203 µM); in series [7] it was 0.033 µg/mL (≈ 0.0609 µM); in [8] it was 0.029 µg/mL (≈ 0.0535 µM); in series [9], 14 µg/mL (≈ 25.8 µM); in series [10] (Mueller-Hinton agar, 5 strains), 0.17 µg/mL (≈ 0.314 µM). Besides, the ED50 in series [5] came out at 0.17 mg/kg; in [3], 0.26 mg/kg.

These data come from patent US4751295A, “Cephalosporin derivatives” (Bristol-Myers Company, priority 1986, dated 1988).
